Test results: the supplement of paper PMC10307832

What was measured:
Test in all cases: relative viability (nuclei count vs DMSO), 5 days (fraction); higher = more cells survive
Metformin + Phenformin = compound: CN(C)C(=N)NC(=N)N [Metformin] + N=C(N)NC(=N)NCCc1ccccc1 [Phenformin] (partner 250 µM)
How it was run: (§1)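 Lung cancer cell lines were pin-tool dosed in 1536-well plates on the day after seeding, with either a lone drug or a fixed anchor-drug dose plus five library-drug doses (not always all listed) in √10 steps. Nuclei were counted on 4× images after 5 days. Relative viability is the ratio of treated-well to vehicle-well nuclei counts, with each value a median of duplicate plates.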

Apatinib + Trametinib = compound: N#CC1(c2ccc(NC(=O)c3cccnc3NCc3ccncc3)cc2)CCCC1 [Apatinib] + CC(=O)Nc1cccc(-n2c(=O)n(C3CC3)c(=O)c3c(Nc4ccc(I)cc4F)n(C)c(=O)c(C)c32)c1 [Trametinib] (partner 0.02 µM)
How it was run: as §1

Apatinib + Pictilisib = compound: N#CC1(c2ccc(NC(=O)c3cccnc3NCc3ccncc3)cc2)CCCC1 [Apatinib] + CS(=O)(=O)N1CCN(Cc2cc3nc(-c4cccc5[nH]ncc45)nc(N4CCOCC4)c3s2)CC1 [Pictilisib] (partner 1 µM)
How it was run: as §1

Apatinib + Vorinostat = compound: N#CC1(c2ccc(NC(=O)c3cccnc3NCc3ccncc3)cc2)CCCC1 [Apatinib] + O=C(CCCCCCC(=O)Nc1ccccc1)NO [Vorinostat] (partner 1 µM)
How it was run: as §1

Cell Line | relative viability (Metformin + Phenformin; first compound 10 µM) | relative viability (Metformin + Phenformin; first compound 31.62 µM) | relative viability (Metformin + Phenformin; first compound 100 µM) | relative viability (Metformin + Phenformin; first compound 316.23 µM) | relative viability (Metformin + Phenformin; first compound 1000 µM) | relative viability (Apatinib + Trametinib; first compound 0.08 µM) | relative viability (Apatinib + Trametinib; first compound 0.253 µM) | relative viability (Apatinib + Trametinib; first compound 0.8 µM) | relative viability (Apatinib + Trametinib; first compound 2.53 µM) | relative viability (Apatinib + Trametinib; first compound 8 µM) | relative viability (Apatinib + Pictilisib; first compound 0.08 µM) | relative viability (Apatinib + Pictilisib; first compound 0.253 µM) | relative viability (Apatinib + Pictilisib; first compound 0.8 µM) | relative viability (Apatinib + Pictilisib; first compound 2.53 µM) | relative viability (Apatinib + Pictilisib; first compound 8 µM) | relative viability (Apatinib + Vorinostat; first compound 0.08 µM) | relative viability (Apatinib + Vorinostat; first compound 0.253 µM) | relative viability (Apatinib + Vorinostat; first compound 0.8 µM) | relative viability (Apatinib + Vorinostat; first compound 2.53 µM) | relative viability (Apatinib + Vorinostat; first compound 8 µM)
NCI-H1651 | 0.42 | 0.312 | 0.371 | 0.327 | 0.373 | 0.84 | 0.874 | 0.821 | 0.75 | 0.684 | 0.665 | 0.565 | 0.494 | 0.614 | 0.476 | 0.583 | 0.522 | 0.528 | 0.48 | 0.577
NCI-H1666 |  | 0.575 | 0.569 | 0.499 | 0.58 | 0.843 | 0.942 | 0.783 | 0.81 | 0.681 | 0.408 | 0.413 | 0.456 | 0.418 | 0.54 | 1.03 | 1.03 | 1.05 | 0.976 | 0.915
NCI-H1734 | 0.431 | 0.447 | 0.405 | 0.367 | 0.379 | 0.689 | 0.712 | 0.682 | 0.664 | 0.618 | 0.478 | 0.491 | 0.466 | 0.469 | 0.416 | 0.935 | 0.947 | 0.773 | 0.727 | 0.728
NCI-H1755 | 0.543 | 0.626 | 0.639 | 0.613 | 0.632 | 0.826 | 0.746 | 0.725 | 0.825 | 0.652 | 0.443 | 0.416 | 0.447 | 0.461 | 0.376 | 0.846 | 0.7 | 0.783 | 0.705 | 0.586
NCI-H1793 | 0.431 |  | 0.403 | 0.366 | 0.562 | 0.432 | 0.449 | 0.443 | 0.34 | 0.301 | 0.277 | 0.23 | 0.391 | 0.256 | 0.342 | 0.948 | 0.779 | 0.773 | 0.522 | 0.628
NCI-H1915 |  | 0.357 | 0.384 | 0.352 | 0.365 | 0.321 | 0.315 | 0.311 | 0.302 | 0.286 | 1.12 | 0.91 | 0.943 | 0.878 | 0.752 | 0.578 | 0.519 | 0.495 | 0.37 | 0.314
NCI-H1944 | 0.205 | 0.2 | 0.19 | 0.169 | 0.209 | 0.395 | 0.429 | 0.318 | 0.403 | 0.29 | 0.344 | 0.345 | 0.306 | 0.282 | 0.303 | 0.519 | 0.526 | 0.454 | 0.422 | 0.419
NCI-H1975 | 0.422 | 0.436 | 0.418 | 0.414 | 0.404 | 0.352 | 0.3 | 0.417 | 0.424 | 0.36 | 0.305 | 0.335 | 0.304 | 0.28 | 0.322 | 0.761 | 0.696 | 0.641 | 0.634 | 0.557
NCI-H1993 | 0.479 | 0.481 | 0.514 | 0.532 | 0.499 | 0.436 | 0.579 | 0.538 | 0.493 | 0.461 | 0.874 | 0.828 | 0.803 | 0.731 | 0.817 | 0.804 | 0.726 | 0.948 | 0.788 | 0.727
NCI-H2009 | 0.504 | 0.499 | 0.565 | 0.412 | 0.425 | 0.341 | 0.285 | 0.31 | 0.25 | 0.229 | 1.12 | 0.727 | 0.737 | 0.644 | 0.501 | 0.701 | 0.776 | 0.669 | 0.627 | 0.48
NCI-H2023 | 0.396 | 0.376 | 0.408 | 0.393 | 0.354 | 0.635 | 0.647 | 0.492 | 0.489 | 0.399 | 0.269 | 0.228 | 0.209 | 0.209 | 0.231 | 0.774 | 0.673 | 0.811 | 0.58 | 0.483
NCI-H2085 | 0.693 | 0.729 | 0.722 | 0.673 | 0.864 | 0.608 | 0.53 | 0.39 | 0.576 | 0.426 | 0.464 | 0.457 | 0.475 | 0.449 | 0.499 | 0.77 | 0.777 | 0.711 | 0.73 | 0.742
NCI-H2087 |  | 0.435 | 0.507 | 0.398 | 0.386 | 0.188 | 0.169 | 0.205 | 0.195 | 0.191 | 0.864 | 0.815 | 0.826 | 0.749 | 0.779 | 0.768 | 0.591 | 0.747 | 0.579 | 0.688
